Four compounds from patent US6242468A, “Carbamate and urea compositions and neurotrophic uses” (priority 1998, dated 2001) can be followed below.

The subject of the assay is TH-positive dopaminergic neurons in the striatum. As to the kind of experiment: MPTP Model of Parkinson's Disease; recovery of TH-positive dopaminergic neurons in the striatum. The note with it: 4 mg/kg s.c.; MPTP 30 mg/kg i.p. for 5 days; compound along with MPTP and 5 further days; 18 days following MPTP. It counts as in vivo, male CD1 white mice. As to the method: MPTP lesioning of dopaminergic neurons in mice was used as an animal model of Parkinson's Disease. Four week old male CD1 white mice were dosed i.p. with 30 mg/kg of MPTP for 5 days. Test compounds (4 mg/kg), or vehicle, were administered s.c. along with the MPTP for 5 days, as well as for an additional 5 days following cessation of MPTP treatment. At 18 days following MPTP treatment, the animals were sacrificed and the striata were dissected and perfusion-fixed. Immunostaining was performed on saggital and coronal brain sections using anti-tyrosine hydroxylase […] to quantitate survival and recovery of dopaminergic neurons. In animals treated with MPTP and vehicle, a substantial loss of functional dopaminergic terminals was observed as compared to non-lesioned animals. […] Table III presents quantitation for the recovery of TH-positive dopaminergic neurons in the striatum of animals receiving compounds 1, 3, 4 and 5 in this model.

SMILES strings stand for the structures.

Regarding `CCC(C)CNC(=O)N1CCC[C@H]1C(=O)OCCCc1cccnc1` (stereo partly drawn) [Example 1, 3-(3-pyridyl)-1-propyl (2S)-1-[(2-methylbutyl)carbamoyl]pyrrolidine-2-carboxylate], the “% Recovery of TH Immunostaining” value amounted to 27.47%.
Turning to `O=C(OCCCc1cccnc1)[C@@H]1CCCN1C(=O)NC1CCCCC1` [Example 4, 3-(3-pyridyl)-1-propyl (2S)-1-[(cyclohexyl)carbamoyl]-pyrrolidine-2-carboxylate], the “% Recovery of TH Immunostaining” value was 59.79%.
The result for `O=C(OCCCc1cccnc1)[C@@H]1CCCN1C(=S)NC1CCCCC1` [Example 3, 3-(3-pyridyl)-1-propyl (2S)-1-[(cyclohexyl)thiocarbamoyl]-pyrrolidine-2-carboxylate] reads 56.13%.
With `O=C(OCCCc1cccnc1)[C@@H]1CCCN1C(=S)NC12CC3CC(CC(C3)C1)C2` [Example 5, 3-(3-pyridyl)-1-propyl (2S)-1-[(1-adamantyl)thiocarbamoyl]pyrrolidine-2-carboxylate] the figure was 52.32%.
